Article PMC9578396, “Intrinsic Antibacterial Activity of Xeruborbactam In Vitro: Assessing Spectrum and Mode of Action” (Antimicrobial Agents and Chemotherapy, 2022)
“And” between values parts separate entries of the source, which are not always exact repeats. Equal entries are not always repeated. Where two headings read alike, the source gives them in different places.

Experiments:
Format in all cases: cell-based
[1] = test system: strain ECM5497 of E. coli; assay: Minimal bactericidal concentration (MBC), E. coli; conditions: Escherichia coli
[2] = test system: strain PAM1154 of P. aeruginosa; assay: Minimal bactericidal concentration (MBC), P. aeruginosa; conditions: Pseudomonas aeruginosa
[3] = test system: strain KPM1026a of K. pneumoniae; assay: Minimal bactericidal concentration (MBC), K. pneumoniae; conditions: Klebsiella pneumoniae
[4] = test system: Klebsiella pneumoniae; assay: microbe, parasite or virus in culture; conditions: for MIC90: read-out: MIC90
How it was run: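 Test organisms were KPC-producing clinical isolates (some enriched for porin mutations), matched isolates that lost KPC plasmids, and engineered porin/efflux mutant strains. Susceptibility was measured by broth microdilution following CLSI methods, using panels prepared in-house.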

[5] = test system: Streptococcus pneumoniae; assay: MIC, Streptococcus pneumoniae; conditions: Streptococcus pneumoniae; for MIC: read-out: MIC
Description: Bacterial isolates were subjected to broth microdilution susceptibility testing, performed according to Clinical and Laboratory Standards Institute (CLSI) methods ([46]), using panels prepared in-house. Meropenem was purchased from Sandoz, and all other antibiotics were from Sigma-Aldrich. Xeruborbactam was synthesized at Qpex Biopharma, San Diego, CA. Avibactam was purchased from eNovation Chemicals LLC, Bridgewater, NJ, USA; zidebactam was from MedKoo Biosciences, Inc., Morrisville, NC, and nacubactam was from Advanced ChemBlocks, Hayward, CA. Durlobactam was synthesized at Acme Bioscience, Palo Alto, CA, USA.

[6] = Klebsiella pneumoniae, 575 isolates
[7] = Klebsiella pneumoniae, K. pneumoniae CRE, 418 isolates
[8] = Klebsiella pneumoniae, K. pneumoniae CRE, KPC, 163 isolates
[9] = Klebsiella pneumoniae, K. pneumoniae CRE, OXA-48-like, 89 isolates
[10] = Klebsiella pneumoniae, K. pneumoniae CRE, metallo-beta-lactamase, 126 isolates
[11] = Klebsiella pneumoniae, K. pneumoniae CRE, non-carbapenemase producing, 40 isolates
[12] = Klebsiella pneumoniae, K. pneumoniae ESBL phenotype, 157 isolates
[13] = Klebsiella pneumoniae, KPC-producing clinical strains with functional OmpK36, alone
[14] = Klebsiella pneumoniae, KPC-producing clinical strains with nonfunctional OmpK36, alone
[15] = Klebsiella pneumoniae, KPC-producing clinical strains, all strains (n = 141), alone

O=C(O)c1c(F)ccc2c1OB(O)[C@@H]1C[C@H]21 [Xeruborbactam]
72 µM and 16 µg/mL: MIC ([4]; Klebsiella pneumoniae, ATCC49816, Klebsiella pneumoniae KPM1001 (ATCC 49816), read-out: MIC)
5.3%: percentage of strains with xeruborbactam MIC values ≥32 µg/ml ([4]; K. pneumoniae clinical isolates, OmpK36 full length (n=228))
6.1%: percentage of strains with xeruborbactam MIC values ≥32 µg/ml ([4]; OmpK35 full-length, OmpK36 full length (n=82))
4 to 32 µg/mL: MIC range ([4]; K. pneumoniae ESBL phenotype, 157 isolates)
64 µg/mL: MIC90 [4, 9] | MIC ([4]; Klebsiella pneumoniae, KPM1273 (KPC-3; ramR_fs ompK36_1171), alone, read-out: MIC) | MIC ([4]; Klebsiella pneumoniae, Klebsiella pneumoniae isolates, read-out: highest MIC observed) | MIC ([4]; Klebsiella pneumoniae, clinical isolate KP1463, OmpK35 NF, OmpK36 NF, read-out: MIC) | MIC ([4]; Klebsiella pneumoniae, clinical isolate KP1469, OmpK35 NF, OmpK36 NF, read-out: MIC) | MIC ([4]; Klebsiella pneumoniae, clinical isolate KP1598, OmpK35 NF, OmpK36 PFN (GD), read-out: MIC) | MIC ([4]; Klebsiella pneumoniae, strain KPM1171, lacks porins and overexpresses AcrAB) | MIC ([4]; Klebsiella pneumoniae, strain KPM1171, ramR ompK36_1171, read-out: MIC)
~ 95%: isolates with MIC values in an 8- to 16-μg/mL range ([4]; 228 isolates with the full-length OmpK36)
3.4%: percentage of strains with xeruborbactam MIC values ≥32 µg/ml ([4]; OmpK35 non-functional, OmpK36 full length (n=130))
75%: percentage of strains with xeruborbactam MIC values ≥32 µg/ml ([4]; OmpK36 GD (n=160))
2 fold and 2- to 4 fold: fold MIC increase ([4]; inactivation of ompK36 alone or in combination with ompK35)
> 16 µg/mL: MIC90 [4, 13] | MIC50 [4, 14] | MIC90 [4, 14] | MIC50 [4, 15] | MIC90 [4, 15]
16 µg/mL: MBC [3] | MIC ([4]; Klebsiella pneumoniae KPM1001 (ATCC 49816)) | MIC50 [4, 6] | MIC50 [4, 7] | MIC50 [4, 8] | MIC50 [4, 9] | MIC50 [4, 10] | MIC50 [4, 11] | MIC50 [4, 12] | MIC90 [4, 12] | MIC50 [4, 13] | MIC ([4]; Klebsiella pneumoniae, KPM1026a (no beta-lactamase), xeruborbactam 0 µg/ml, read-out: MIC) | MIC ([4]; Klebsiella pneumoniae, KPM1026a, alone, read-out: MIC) | MIC ([4]; Klebsiella pneumoniae, KPM1026a, parent, read-out: MIC) | MIC ([4]; Klebsiella pneumoniae, KPM1271 (KPC-3; wild type), alone, read-out: MIC) | MIC ([4]; Klebsiella pneumoniae, KPM1271 (KPM1026a/KPC-3), alone, read-out: MIC) | MIC ([4]; Klebsiella pneumoniae, KPM1272 (KPC-3; ramR_fs), alone, read-out: MIC) | MIC ([4]; Klebsiella pneumoniae, KPM1281 (KPM1026a/NDM-1), alone, read-out: MIC) | MIC ([4]; Klebsiella pneumoniae, KPM2067 (KPC-3; ompK36_fs), alone, read-out: MIC) | MIC ([4]; Klebsiella pneumoniae, KPM2601 (KPC-3; ΔompK35), alone) | MIC ([4]; Klebsiella pneumoniae, clinical isolate KP1004, OmpK35 NF, OmpK36 FN, read-out: MIC) | MIC ([4]; Klebsiella pneumoniae, clinical isolate KP1251, OmpK35 NF, OmpK36 FN, read-out: MIC) | MIC ([4]; Klebsiella pneumoniae, strain KPM1026a, wild type, read-out: MIC) | MIC ([4]; Klebsiella pneumoniae, strain KPM1026a, read-out: MIC) | MIC ([4]; Klebsiella pneumoniae, strain KPM1027, ramR, read-out: MIC) | MIC ([4]; Klebsiella pneumoniae, strain KPM2040, ompK36_2040, read-out: MIC) | MIC ([4]; Klebsiella pneumoniae, strain KPM2600, ΔompK35) | MIC ([4]; Klebsiella pneumoniae, strain KPM2696, ΔacrB) | MIC ([5]; sp005) | MIC ([5]; sp007)
16 to 32 µg/mL: MIC ([4]; Klebsiella pneumoniae, BAA2814, KPC-3-producing KP1074 (BAA-2814), xeruborbactam none, read-out: MIC) | MIC ([4]; Klebsiella pneumoniae, KPM1211 (KP1074 after loss of pKpQIL), read-out: MIC)
4 µg/mL: MIC ([5]; sp002) | MIC ([5]; sp003)
92.3% and 92%: percentage of strains with xeruborbactam MIC values ≥32 µg/ml ([4]; OmpK36 non-functional (n=65))
8 µg/mL: MBC [1] | MIC ([4]; Klebsiella pneumoniae, clinical isolate KP1070, OmpK35 NF, OmpK36 FN, read-out: MIC) | MIC ([4]; Klebsiella pneumoniae, clinical isolate KP1274, OmpK35 FN, OmpK36 FN, read-out: MIC) | MIC ([5]; sp001)
72 µM: MIC ([4]; Klebsiella pneumoniae KPM1001 (ATCC 49816), read-out: MIC)
4 fold: fold MIC increase ([4]; strain KPM1171 vs wild type)
95%: percentage of strains with xeruborbactam MIC values ≥32 µg/ml ([4]; OmpK35 non-functional, OmpK36 non-functional (n=39))
31.4%: percentage of strains with xeruborbactam MIC values ≥32 µg/ml ([4]; OmpK35 full-length (n=118))
74.5%: percentage of strains with xeruborbactam MIC values ≥32 µg/ml ([4]; OmpK35 non-functional, OmpK36 GD (n=149))
49%: percentage of strains with xeruborbactam MIC values ≥32 µg/ml ([4]; OmpK35 non-functional (n=318))
92%: percentage of strains with xeruborbactam MIC values ≥32 µg/ml ([4]; OmpK35 full-length, OmpK36 non-functional (n=25))
32 µg/mL: MBC [2] | MIC90 [4, 6] | MIC90 [4, 7] | MIC90 [4, 8] | MIC90 [4, 10] | MIC90 [4, 11] | MIC ([4]; Klebsiella pneumoniae, KPM2631 (KPC-3; ompK36_fs ΔompK35), alone) | MIC ([4]; Klebsiella pneumoniae, KPM3532 (TolQ::M189K), alone) | MIC ([4]; Klebsiella pneumoniae, KPM3532, TolQ::M189K) | MIC ([4]; Klebsiella pneumoniae, KPM3534 (TolQ::S31F), alone) | MIC ([4]; Klebsiella pneumoniae, KPM3534, TolQ::S31F) | MIC ([4]; Klebsiella pneumoniae, KPM4127 (KPM3532 TolQ::M189K/KPC-3), alone) | MIC ([4]; Klebsiella pneumoniae, KPM4128 (KPM3534 TolQ::S31F/KPC-3), alone) | MIC ([4]; Klebsiella pneumoniae, KPM4129 (KPM3532 TolQ::M189K/NDM-1), alone) | MIC ([4]; Klebsiella pneumoniae, KPM4130 (KPM3534 TolQ::S31F/NDM-1), alone) | MIC ([4]; Klebsiella pneumoniae, KPM4235, TolQ::IP(183–1844)PR) | MIC ([4]; Klebsiella pneumoniae, KPM4236, TolQ::TAA at aa 103) | MIC ([4]; Klebsiella pneumoniae, KPM4238, TolQ::S25F) | MIC ([4]; Klebsiella pneumoniae, KPM4239, TolQ::S28F) | MIC ([4]; Klebsiella pneumoniae, KPM4240, TolQ::S25Y) | MIC ([4]; Klebsiella pneumoniae, clinical isolate KP1074, OmpK35 NF, OmpK36 PFN (GD), read-out: MIC) | MIC ([4]; Klebsiella pneumoniae, clinical isolate KP1093, OmpK35 NF, OmpK36 PFN (GD), read-out: MIC) | MIC ([4]; Klebsiella pneumoniae, strain KPM1026a measured at 30°C (Fig. 6), read-out: MIC) | MIC ([4]; Klebsiella pneumoniae, strain KPM2613, ΔompK35 ompK36_2040) | MIC ([5]; sp006) | MIC ([5]; sp008) | MIC ([5]; sp009) | MIC ([5]; sp119) | MIC ([5]; sp120) | MIC ([5]; sp121) | MIC ([5]; sp125) | MIC50 ([5]; S. pneumoniae strains, n = 18)
82%: percentage of strains with xeruborbactam MIC values ≥32 µg/ml ([4]; OmpK35 full-length, OmpK36 GD (n=11))
> 32 µg/mL: MIC ([5]; sp004) | MIC ([5]; sp117) | MIC ([5]; sp118) | MIC ([5]; sp122) | MIC ([5]; sp123) | MIC ([5]; sp126) | MIC90 ([5]; S. pneumoniae strains, n = 18)
